Test results as given in patent publication EP4603105A1, “PHARMACEUTICAL COMPOSITION CONTAINING CYCLIC COMPOUND HAVING SELECTIVE KRAS INHIBITORY EFFECT AGAINST HRAS AND NRAS” (CHUGAI SEIYAKU KABUSHIKI KAISHA, priority 2022, dated 2024).

Assays:
[1] = target: GDP-bound KRAS wild-type protein (Homo sapiens, UniProt P01116); assay: Binding to KRAS by surface plasmon resonance (SPR), dissociation constant KD; settings: 1:1 binding model
How it was run: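 Single-cycle kinetics on GDP-loaded biotin-Avi RAS captured to ~100–300 RU; 75 s ascending injections, 100 µL/min, 30°C. HBS pH 7.4 + 10 mM MgCl2/10 µM GDP/4% DMSO. 1:1 fit, KD.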

[2] = target: GDP-bound NRAS wild-type protein (Homo sapiens, UniProt P01111); assay: Binding to NRAS by surface plasmon resonance (SPR), KD and KD ratio to KRAS; settings: ratio of KD for GDP-bound NRAS wild-type protein to KD for KRAS
GDP-bound NRAS wild-type protein, sequence (P01111 whole entry): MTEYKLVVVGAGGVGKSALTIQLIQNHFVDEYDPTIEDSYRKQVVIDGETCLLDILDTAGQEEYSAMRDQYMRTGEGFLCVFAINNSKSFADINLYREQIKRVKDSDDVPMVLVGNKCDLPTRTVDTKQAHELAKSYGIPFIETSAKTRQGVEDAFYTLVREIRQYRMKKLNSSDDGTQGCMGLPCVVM
How it was run: (§1)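 Measured at 30°C: SPR with GDP-loaded, E. coli-expressed biotin-Avi RAS captured (~100–300 RU), ascending 75 s compound injections, HBS pH 7.4 with GDP, MgCl2, 4% DMSO. KD from 1:1 fit.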

[3] = test system: human lung cancer strain NCI-H441; format: cell-based
How it was run: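 Signal came from […] measured per well once the reagent was added. Beforehand, cells were cultured at 37°C and 5% carbon dioxide on a compound series serially diluted in dimethyl sulfoxide.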

[4] = target: HRAS wild-type protein (Homo sapiens, UniProt P01112); assay: Binding to HRAS by surface plasmon resonance (SPR), KD and KD ratio to KRAS; settings: ratio of KD for HRAS wild-type protein to KD for KRAS
HRAS wild-type protein, sequence (P01112 whole entry): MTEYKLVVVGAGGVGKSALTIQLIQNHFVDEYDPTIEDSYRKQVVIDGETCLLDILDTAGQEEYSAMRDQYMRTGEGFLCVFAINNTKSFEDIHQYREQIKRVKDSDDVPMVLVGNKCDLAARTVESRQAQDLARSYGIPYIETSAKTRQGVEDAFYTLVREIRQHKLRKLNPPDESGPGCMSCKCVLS
How it was run: as §1

GDP-bound KRAS wild-type protein, sequence (P01116 1-188 isoform P01116-2): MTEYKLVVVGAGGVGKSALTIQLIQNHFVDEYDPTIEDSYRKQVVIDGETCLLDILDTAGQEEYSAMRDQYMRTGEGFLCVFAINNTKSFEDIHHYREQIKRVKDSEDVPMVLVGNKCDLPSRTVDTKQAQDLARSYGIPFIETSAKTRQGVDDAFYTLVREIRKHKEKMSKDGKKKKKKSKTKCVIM

Row | SMILES | Kd [1] | NRAS /KRAS [2] | IC50 [3] | HRAS /KRAS [4]
1 | CCO[C@@H]1C[C@H]2C(=O)NC3(CCC3)C(=O)N(C)[C@@H](C3CCCC3)C(=O)N(C)[C@H](C(=O)N(C)CC)CC(=O)N(C)[C@@H](CC3CCC3)C(=O)N[C@@H]([C@@H](C)CC)C(=O)N(C)CC(=O)N(C)[C@H]3C/C=C\CCN(C3=O)[C@@H](Cc3ccc(C(F)(F)F)cc3)C(=O)N(C)CC(=O)N[C@@H](CCc3ccc(Cl)c(Cl)c3)C(=O)N2C1 [PP2824] | 0.44 nM | A (a compound having 10 or more and less than 20 is denoted as A) | 23.4 nM | A (a compound having 10 or more and less than 20 is denoted as A)
2 | CCCOC[C@H]1C(=O)N[C@@H]([C@@H](C)CC)C(=O)N(C)CC(=O)N(C)[C@H]2C/C=C\CCN(C2=O)[C@@H](Cc2ccc(C(F)(F)F)cc2)C(=O)N(C)CC(=O)N[C@@H](CCc2ccc(Cl)c(Cl)c2)C(=O)N2C[C@H](OCC)C[C@H]2C(=O)NC2(CCC2)C(=O)N(C)[C@@H](C2CCCC2)C(=O)N(C)[C@H](C(=O)N(C)CCC)CC(=O)N1C [PP2830] | 0.37 nM | A (a compound having 10 or more and less than 20 is denoted as A) | 28.8 nM | A (a compound having 10 or more and less than 20 is denoted as A)
3 | CCCC[C@H]1C(=O)N[C@@H]([C@@H](C)CC)C(=O)N(C)CC(=O)N(C)[C@H]2C/C=C\CCN(C2=O)[C@@H](Cc2ccc(C(F)(F)F)cc2)C(=O)N(C)CC(=O)N[C@@H](CCc2ccc(C(F)(F)F)c(Cl)c2)C(=O)N2C[C@H](OCC)C[C@H]2C(=O)NC2(CCC2)C(=O)N(C)[C@@H](C2CCCC2)C(=O)N(C)[C@H](C(=O)N(C)CC)CC(=O)N1C [PP2841] | 0.086 nM | A (a compound having 10 or more and less than 20 is denoted as A) | 8.3 nM | A (a compound having 10 or more and less than 20 is denoted as A)
4 | CCO[C@@H]1C[C@H]2C(=O)NC3(CCC3)C(=O)N(C)[C@@H](C3CCCC3)C(=O)N(C)[C@H](C(=O)N(C)CC)CC(=O)N(C)[C@@H](CC(C)C)C(=O)N[C@@H]([C@@H](C)CC)C(=O)N(C)CC(=O)N(C)[C@H]3C/C=C\CCN(C3=O)[C@@H](Cc3ccc(C(F)(F)F)cc3)C(=O)N(C)CC(=O)N[C@@H](CCc3ccc(Cl)c(Cl)c3)C(=O)N2C1 [PP2845] | 0.3 nM | AA (a compound having 20 or more is denoted as AA) | 22.7 nM | A (a compound having 10 or more and less than 20 is denoted as A)
5 | CCO[C@@H]1C[C@H]2C(=O)NC3(CCC3)C(=O)N(C)[C@@H](C3CCCC3)C(=O)N(C)[C@H](C(=O)N(C)CC)CC(=O)N(C)[C@@H](CC(C)C)C(=O)N[C@@H]([C@@H](C)CC)C(=O)N(C)CC(=O)N(C)[C@H]3C/C=C\CCN(C3=O)[C@@H](Cc3ccc(C(F)(F)F)cc3)C(=O)N(C)CC(=O)N[C@@H](CCc3ccc(C(F)(F)F)c(Cl)c3)C(=O)N2C1 [PP2847] | 0.083 nM | A (a compound having 10 or more and less than 20 is denoted as A) | 7.3 nM | A (a compound having 10 or more and less than 20 is denoted as A)
6 | CCC[C@H]1C(=O)N[C@@H]([C@@H](C)CC)C(=O)N(C2CC2)CC(=O)N(C)[C@H]2C/C=C\CCN(C2=O)[C@@H](Cc2ccc(C)cc2)C(=O)N(C)CC(=O)N[C@@H](CCc2ccc(C(F)(F)F)c(CC)c2)C(=O)N2C[C@H](OCC)C[C@H]2C(=O)NC2(CC(C)(C)C2)C(=O)N(C)[C@@H](C2CCCC2)C(=O)N(C)[C@H](C(=O)N(C)C)CC(=O)N1C [PP2870] | 0.58 nM | A (a compound having 10 or more and less than 20 is denoted as A) | 11.5 nM | A (a compound having 10 or more and less than 20 is denoted as A)
7 | CCC[C@H]1C(=O)N[C@@H]([C@@H](C)CC)C(=O)N(C)CC(=O)N(C)[C@H]2C/C=C\CCN(C2=O)[C@@H](Cc2ccc(C)cc2)C(=O)N(C)CC(=O)N[C@@H](CCc2ccc3sc(C)c(C)c3c2)C(=O)N2C[C@H](OCC)C[C@H]2C(=O)NC2(CC(C)(C)C2)C(=O)N(C)[C@@H](C2CCCC2)C(=O)N(C)[C@H](C(=O)N(C)C)CC(=O)N1C [PP2891] | 0.33 nM | A (a compound having 10 or more and less than 20 is denoted as A) | 17.2 nM | B (a compound having 3 or more and less than 10 is denoted as B)
8 | CCC[C@H]1C(=O)N[C@@H]([C@@H](C)CC)C(=O)N(C)CC(=O)N(C)[C@H]2C/C=C\CCN(C2=O)[C@@H](Cc2ccc(C(F)(F)F)cc2)C(=O)N(C)CC(=O)N[C@@H](CCc2ccc3c(C)c(C)n(C)c3c2)C(=O)N2C[C@H](OCC)C[C@H]2C(=O)NC2(CC(C)(C)C2)C(=O)N(C)[C@@H](C(CC)CC)C(=O)N(C)[C@H](C(=O)N(C)C)CC(=O)N1C [PP2904] | 3.8 nM | AA (a compound having 20 or more is denoted as AA) | 82.4 nM | A (a compound having 10 or more and less than 20 is denoted as A)
9 | CCC[C@H]1C(=O)N[C@@H]([C@@H](C)CC)C(=O)N(C)CC(=O)N(C)[C@H]2C/C=C\CCN(C2=O)[C@@H](Cc2ccc(C)cc2)C(=O)N(C)CC(=O)N[C@@H](CCc2ccc3c(C)c(C)n(C)c3c2)C(=O)N2C[C@H](OCC)C[C@H]2C(=O)NC2(CC(C)(C)C2)C(=O)N(C)[C@@H](C(CC)CC)C(=O)N(C)[C@H](C(=O)N(C)C)CC(=O)N1C [PP2906] | 5.5 nM | A (a compound having 10 or more and less than 20 is denoted as A) | 99.3 nM | A (a compound having 10 or more and less than 20 is denoted as A)
10 | CCC[C@H]1C(=O)N[C@@H]([C@@H](C)CC)C(=O)N(C)CC(=O)N(C)[C@H]2C/C=C\CCN(C2=O)[C@@H](Cc2ccc(C)cc2)C(=O)N(C)CC(=O)N[C@@H](CCc2ccc3c(C)cn(C)c3c2)C(=O)N2C[C@H](OCC)C[C@H]2C(=O)NC2(CC(C)(C)C2)C(=O)N(C)[C@@H](C(CC)CC)C(=O)N(C)[C@H](C(=O)N(C)C)CC(=O)N1C [PP2910] | 3 nM | AA (a compound having 20 or more is denoted as AA) | 39.8 nM | A (a compound having 10 or more and less than 20 is denoted as A)
11 | CCC[C@H]1C(=O)N[C@@H]([C@@H](C)CC)C(=O)N(C)CC(=O)N(C)[C@H]2C/C=C\CCN(C2=O)[C@@H](Cc2ccc(C)cc2)C(=O)N(C)CC(=O)N[C@@H](CCc2ccc3ccn(C)c3c2)C(=O)N2C[C@H](OCC)C[C@H]2C(=O)NC2(CC(C)(C)C2)C(=O)N(C)[C@@H](C(CC)CC)C(=O)N(C)[C@H](C(=O)N(C)C)CC(=O)N1C [PP2914] | 14 nM | AA (a compound having 20 or more is denoted as AA) | 311 nM | A (a compound having 10 or more and less than 20 is denoted as A)
12 | CCC(CC)[C@H]1C(=O)N(C)[C@H](C(=O)N(C)C)CC(=O)N(C)[C@@H](COC)C(=O)N[C@@H]([C@@H](C)CC)C(=O)N(C)CC(=O)N(C)[C@H]2C/C=C\CCN(C2=O)[C@@H](Cc2ccc(C)cc2)C(=O)N(C)CC(=O)N[C@@H](CCc2cc(F)c(C(F)(F)F)c(F)c2)C(=O)N2CCCC[C@H]2C(=O)NC2(CC(C)(C)C2)C(=O)N1C [PP2922] | 1.1 nM | AA (a compound having 20 or more is denoted as AA) | 55.4 nM | A (a compound having 10 or more and less than 20 is denoted as A)
13 | CCC(CC)[C@H]1C(=O)N(C)[C@H](C(=O)N(C)C)CC(=O)N(C)[C@@H](COC)C(=O)N[C@@H]([C@@H](C)CC)C(=O)N(C)CC(=O)N(C)[C@H]2C/C=C\CCN(C2=O)[C@@H](Cc2ccc(C)cc2)C(=O)N(C)CC(=O)N[C@@H](CCc2ccc(C(F)(F)F)c(Cl)c2)C(=O)N2CCCC[C@H]2C(=O)NC2(CC(C)(C)C2)C(=O)N1C [PP2931] | 1.9 nM | A (a compound having 10 or more and less than 20 is denoted as A) | 65.5 nM | A (a compound having 10 or more and less than 20 is denoted as A)
14 | CCC(CC)[C@H]1C(=O)N(C)[C@H](C(=O)N(C)C)CC(=O)N(C)[C@@H](COC)C(=O)N[C@@H]([C@@H](C)CC)C(=O)N(C)CC(=O)N(C)[C@H]2C/C=C\CCN(C2=O)[C@@H](Cc2ccc(C)cc2)C(=O)N(C)CC(=O)N[C@@H](CCc2ccc(C(F)(F)F)c(OC)c2)C(=O)N2CCCC[C@H]2C(=O)NC2(CC(C)(C)C2)C(=O)N1C [PP2937] | 1.1 nM | A (a compound having 10 or more and less than 20 is denoted as A) | 137 nM | A (a compound having 10 or more and less than 20 is denoted as A)
15 | CCC(CC)[C@H]1C(=O)N(C)[C@H](C(=O)N(C)C)CC(=O)N(C)[C@@H](COC)C(=O)N[C@@H]([C@@H](C)CC)C(=O)N(C)CC(=O)N(C)[C@H]2C/C=C\CCN(C2=O)[C@@H](Cc2ccc(C)cc2)C(=O)N(C)CC(=O)N[C@@H](CCc2ccc(C(F)(F)F)c(OC)c2)C(=O)N2CCOC[C@H]2C(=O)NC2(CC(C)(C)C2)C(=O)N1C [PP2938] | 1.1 nM | AA (a compound having 20 or more is denoted as AA) | 104 nM | A (a compound having 10 or more and less than 20 is denoted as A)
